In paper PMC6323060, “Expression in eukaryotic cells and purification of synthetic gene encoding enterocin P: a bacteriocin with broad antimicrobial spectrum” (AMB Express, 2019):
Values after ≈ are worked out from the molar mass of the structure shown. Ends that are not written are not given here.

Experiments:
Salmonella typhi = assay: MIC, broth micro-dilution (CLSI); assay type: cell-based; details: Salmonella typhi clinical isolate, MHB, approx. 5 × 10^5 CFU/ml, overnight 37 °C, triplicate; for MIC: Salmonella enterica, read-out: Antimicrobial activity MIC
Salmonella paratyphi C = assay: MIC, broth micro-dilution (CLSI); assay type: cell-based; details: Salmonella enterica, read-out: Antimicrobial activity MIC
Shigella dysenteriae = assay: MIC, broth micro-dilution (CLSI); assay type: cell-based; details: for MIC: Shigella dysenteriae, read-out: Antimicrobial activity MIC
[1] = system: Staphylococcus aureus ATCC 25923; assay: MIC, broth micro-dilution (CLSI); details: for MIC: Staphylococcus aureus, ATCC25923, read-out: Antimicrobial activity MIC
[2] = system: Staphylococcus aureus ATCC 29213; assay: MIC, broth micro-dilution (CLSI); details: for MIC: Staphylococcus aureus, ATCC29213, read-out: Antimicrobial activity MIC
[3] = system: Enterococcus faecalis ATCC 29212; assay: MIC, broth micro-dilution (CLSI); details: for MIC: Enterococcus faecalis, ATCC29212, read-out: Antimicrobial activity MIC
Listeria monocytogenes = assay: MIC, broth micro-dilution (CLSI); details: for MIC: Listeria monocytogenes, read-out: Antimicrobial activity MIC
E. coli ATCC 25922 = assay: MIC, broth micro-dilution (CLSI); details: Escherichia coli, ATCC25922, read-out: Antimicrobial activity MIC
[4] = system: Klebsiella pneumonia ATCC 700603; assay: MIC, broth micro-dilution (CLSI); details: for MIC: Klebsiella pneumoniae, ATCC700603, read-out: Antimicrobial activity MIC
[5] = system: Pseudomonas aeruginosa ATCC 27853; assay: MIC, broth micro-dilution (CLSI); details: for MIC: Pseudomonas aeruginosa, ATCC27853, read-out: Antimicrobial activity MIC
MRSA ATCC 33591 = assay: MIC, broth micro-dilution (CLSI); details: for MIC: Staphylococcus aureus, read-out: Antimicrobial activity MIC
VRE = assay: MIC, broth micro-dilution (CLSI); details: for MIC: Enterococcus, VRE, read-out: Antimicrobial activity MIC
[6] = system: Pseudomonas aeruginosa VIM+; assay: MIC, broth micro-dilution (CLSI); details: for MIC: Pseudomonas aeruginosa, read-out: Antimicrobial activity MIC
[7] = system: Acinetobacter baumannii ATCC 13304; assay: MIC, broth micro-dilution (CLSI); details: ATCC13304, read-out: Antimicrobial activity MIC
E. coli (ATCC 25922) [8] = assay: Effect of salt (NaCl) on antimicrobial activity; assay type: cell-based, Escherichia coli; design: key: +: presence of activity; −: absence of activity; details: 4 h, CFU counted after 24 h at 37 °C, triplicate
Experimental: (§1) To investigate the activities of the EntP peptide in the presence of high salt concentrations, the MIC was determined as described above, except that fixed concentration of NaCl was added to each well of the microtiter plate. Overnight cultures of S. aureus (ATCC 25923) and E. coli (ATCC 25922) as Gram-positive and Gram-negative model strains were incubated in MHB with 0, 50, 100, or 150 mM NaCl for 4 h. Bacteria were serially diluted and plated in triplicate on Trypticase soy agar (HiMedia, India) plates. CFUs were counted after 24 h of incubation at 37 °C. The stability of EntP peptide in 50% human plasma was evaluated as previously described (Hou et al. [2011]). The human plasma was determined to contain no antimicrobial activity before the test. Then 800 μg/ml of recombinant EntP peptide was diluted 1:1 with fresh human plasma and incubated at 37 °C for 0, 3, or 6 h. After incubation, the antimicrobial activity of each sample was determined by MIC assays with S. aureus (ATCC 25923) and E. coli (ATCC 25922).

S. aureus (ATCC 25923) [9] = assay: Effect of salt (NaCl) on antimicrobial activity; assay type: cell-based, Staphylococcus aureus; design: key: +: presence of activity; −: absence of activity; details: 4 h, CFU counted after 24 h at 37 °C, triplicate
Experimental: as §1

E. coli (ATCC 25922) [10] = assay: Stability in 50% human plasma, read out as antimicrobial activity (MIC assay); assay type: in vitro ADME, Escherichia coli; design: key: +: presence of activity; −: absence of activity; details: 800 μg/ml peptide diluted 1:1 with fresh human plasma (50%), 37 °C
Experimental: as §1

S. aureus (ATCC 25923) [11] = assay: as above; assay type: in vitro ADME, Staphylococcus aureus; design: key: +: presence of activity; −: absence of activity; details: 800 μg/ml peptide diluted 1:1 with fresh human plasma (50%), 37 °C
Experimental: as §1

[12] = system: S. aureus (ATCC 25923) and E. coli (ATCC 25922); assay: Antimicrobial activity in 50% human plasma, overall statement; assay type: in vitro ADME; details: 37 °C, 0, 3 or 6 h, read-out MIC assay
Experimental: as §1

`CC1(C)S[C@@H]2[C@H](NC(=O)[C@H](N)c3ccccc3)C(=O)N2[C@H]1C(=O)O` [Ampicillin] was tested, and the MIC (Salmonella typhi) was 2 µg/mL (≈ 5.72 µM), the MIC (Salmonella paratyphi C) was 2 µg/mL (≈ 5.72 µM) and the MIC (Shigella dysenteriae) was 4 µg/mL (≈ 11.4 µM). The MIC [1] was no more than 1 µg/mL, the MIC [2] was no more than 1 µg/mL and the MIC [3] was no more than 1 µg/mL. It also gave an MIC (Listeria monocytogenes) of 2 µg/mL (≈ 5.72 µM), an MIC (E. coli ATCC 25922) of no more than 2 µg/mL and an MIC [4] greater than 128 µg/mL.
For `CC(C)(O/N=C(\C(=O)N[C@@H]1C(=O)N2C(C(=O)[O-])=C(C[n+]3ccccc3)CS[C@H]12)c1csc(N)n1)C(=O)O` [Ceftazidime], the MIC (Salmonella typhi) was 4 µg/mL (≈ 7.32 µM), the MIC (Salmonella paratyphi C) was 4 µg/mL (≈ 7.32 µM) and the MIC (Shigella dysenteriae) was no more than 2 µg/mL. It also gave an MIC [1] of no more than 2 µg/mL, an MIC [2] of no more than 2 µg/mL and an MIC [3] of no more than 4 µg/mL. It also gave an MIC (Listeria monocytogenes) of no more than 4 µg/mL, an MIC (E. coli ATCC 25922) of no more than 2 µg/mL and an MIC [5] of 2 µg/mL (≈ 3.66 µM). It also gave an MIC (MRSA ATCC 33591) of 16 µg/mL (≈ 29.3 µM), an MIC (VRE) of 32 µg/mL (≈ 58.5 µM) and an MIC [6] of no less than 32 µg/mL. The MIC [7] was no less than 32 µg/mL and the MIC [4] was no less than 16 µg/mL.
`CNC(C)C1CCC(N)C(OC2C(N)CC(N)C(OC3OCC(C)(O)C(NC)C3O)C2O)O1` (stereo not drawn) [Gentamicin] gave an MIC (Salmonella typhi) of no more than 2 µg/mL, an MIC (Salmonella paratyphi C) of no more than 1 µg/mL and an MIC (Shigella dysenteriae) of 4 µg/mL (≈ 8.38 µM). It also gave an MIC [1] of no more than 1 µg/mL, an MIC [2] of no more than 1 µg/mL and an MIC [3] of no more than 1 µg/mL. The MIC (Listeria monocytogenes) was 8 µg/mL (≈ 16.8 µM), the MIC (E. coli ATCC 25922) was no more than 1 µg/mL and the MIC [5] was no more than 16 µg/mL. For the same compound, the MIC (MRSA ATCC 33591) was no less than 16 µg/mL, the MIC (VRE) was no less than 16 µg/mL and the MIC [6] was no less than 16 µg/mL. It also gave an MIC [7] of no less than 16 µg/mL and an MIC [4] of no less than 16 µg/mL.
Compound `CCN1CCN(C(=O)N[C@@H](C(=O)N[C@@H]2C(=O)N3[C@@H]2SC(C)(C)[C@@H]3C(=O)O)c2ccccc2)C(=O)C1=O` [Piperacillin] has an MIC (Salmonella typhi) of 4 µg/mL (≈ 7.73 µM), an MIC (Salmonella paratyphi C) of no more than 8 µg/mL and an MIC (Shigella dysenteriae) of 4 µg/mL (≈ 7.73 µM). It also gave an MIC (Listeria monocytogenes) of 4 µg/mL (≈ 7.73 µM), an MIC (E. coli ATCC 25922) of no more than 8 µg/mL and an MIC [5] of no more than 8 µg/mL. The MIC [6] was no less than 128 µg/mL, the MIC [7] was no less than 64 µg/mL and the MIC [4] was no less than 128 µg/mL.
With `CN[C@H](CC(C)C)C(=O)N[C@H]1C(=O)N[C@@H](CC(N)=O)C(=O)N[C@H]2C(=O)N[C@H]3C(=O)N[C@H](C(=O)N[C@H](C(=O)O)c4cc(O)cc(O)c4-c4cc3ccc4O)[C@H](O)c3ccc(c(Cl)c3)Oc3cc2cc(c3O[C@@H]2O[C@H](CO)[C@@H](O)[C@H](O)[C@H]2O[C@H]2C[C@](C)(N)[C@H](O)[C@H](C)O2)Oc2ccc(cc2Cl)[C@H]1O` [Vancomycin] the MIC [1] was no more than 1 µg/mL, the MIC [2] was no more than 1 µg/mL and the MIC [3] was no more than 1 µg/mL. For the same compound, the MIC (Listeria monocytogenes) was 1 µg/mL (≈ 0.69 µM), the MIC (MRSA ATCC 33591) was no less than 16 µg/mL and the MIC (VRE) was no less than 32 µg/mL.
For “enterocin P (ATRSYGNGVYCNNSKCWVNWGEAKENIAGIVISGWASGLAGMGH-{H2N-H2N-H2N-H2N-H2N-H2N}; ends and bridges not checked; UniProt O30434 28-71, looked up) [EntP]”, the “Antimicrobial activity MIC” value (Salmonella typhi) was 16 µg/mL, the “Antimicrobial activity MIC” value (Shigella dysenteriae; Shigella dysenteriae clinical isolate, broth micro-dilution (CLSI), MHB, approx. 5 × 10^5 CFU/ml, overnight 37 °C, triplicate) was 128 µg/mL and the “Activity after treatment with salt” value (E. coli (ATCC 25922) [8]; 0 mM NaCl in MHB) was “+”. For the same compound, the “Activity after treatment with salt” value (E. coli (ATCC 25922) [8]; 50 mM NaCl in MHB) was “+”, the “Activity after treatment with salt” value (E. coli (ATCC 25922) [8]; 100 mM NaCl in MHB) was “+” and the “Activity after treatment with salt” value (E. coli (ATCC 25922) [8]; 150 mM NaCl in MHB) was “−”. The “Activity after treatment with salt” value (S. aureus (ATCC 25923) [9]; 0 mM NaCl in MHB) was “+”, the “Activity after treatment with salt” value (S. aureus (ATCC 25923) [9]; 50 mM NaCl in MHB) was “+” and the “Activity after treatment with salt” value (S. aureus (ATCC 25923) [9]; 100 mM NaCl in MHB) was “+”. For the same compound, the “Activity after treatment with salt” value (S. aureus (ATCC 25923) [9]; 150 mM NaCl in MHB) was “−”, the “Activity after treatment with plasma” value (E. coli (ATCC 25922) [10]; 0 h) was “+” and the “Activity after treatment with plasma” value (E. coli (ATCC 25922) [10]; 3 h) was “+”. For the same compound, the “Activity after treatment with plasma” value (E. coli (ATCC 25922) [10]; 6 h) was “+”, the “Activity after treatment with plasma” value (S. aureus (ATCC 25923) [11]; 0 h) was “+” and the “Activity after treatment with plasma” value (S. aureus (ATCC 25923) [11]; 3 h) was “+”. The “Activity after treatment with plasma” value (S. aureus (ATCC 25923) [11]; 6 h) was “+”, the “Antimicrobial activity in 50% human plasma compared with PBS” value [12] was “not significantly different from that in PBS” and the “Antimicrobial activity MIC” value ([1]; Staphylococcus aureus ATCC 25923, broth micro-dilution (CLSI), MHB, approx. 5 × 10^5 CFU/ml, overnight 37 °C, triplicate) was 8 µg/mL. For the same compound, the “Antimicrobial activity MIC” value ([2]; Staphylococcus aureus ATCC 29213, broth micro-dilution (CLSI), MHB, approx. 5 × 10^5 CFU/ml, overnight 37 °C, triplicate) was 8 µg/mL, the “Antimicrobial activity MIC” value ([3]; Enterococcus faecalis ATCC 29212, broth micro-dilution (CLSI), MHB, approx. 5 × 10^5 CFU/ml, overnight 37 °C, triplicate) was 16 µg/mL and the “Antimicrobial activity MIC” value (Listeria monocytogenes; Listeria monocytogenes clinical isolate, broth micro-dilution (CLSI), MHB, approx. 5 × 10^5 CFU/ml, overnight 37 °C, triplicate) was 32 µg/mL. For the same compound, the “Antimicrobial activity MIC” value ([5]; Pseudomonas aeruginosa ATCC 27853, broth micro-dilution (CLSI), MHB, approx. 5 × 10^5 CFU/ml, overnight 37 °C, triplicate) was 8 µg/mL, the “Antimicrobial activity MIC” value (MRSA ATCC 33591; MRSA ATCC 33591 (resistant strain), broth micro-dilution (CLSI), MHB, approx. 5 × 10^5 CFU/ml, overnight 37 °C, triplicate) was 64 µg/mL and the “Antimicrobial activity MIC” value (VRE; VRE clinical isolate (resistant strain), broth micro-dilution (CLSI), MHB, approx. 5 × 10^5 CFU/ml, overnight 37 °C, triplicate) was 64 µg/mL. For the same compound, the “Antimicrobial activity MIC” value ([6]; Pseudomonas aeruginosa VIM+ (resistant strain), broth micro-dilution (CLSI), MHB, approx. 5 × 10^5 CFU/ml, overnight 37 °C, triplicate) was 256 µg/mL and the “Antimicrobial activity MIC” value ([4]; Klebsiella pneumonia ATCC 700603 (resistant strain), broth micro-dilution (CLSI), MHB, approx. 5 × 10^5 CFU/ml, overnight 37 °C, triplicate) was 8 µg/mL.
